# Results as given in patent US5219741A, “Method of making L-proline using an N-acyl-L-protine acylase” (priority 1990, dated 1993).
# “Also recorded” adds a separate entry of the source.
# Tests used:
# [1] = test system: Comamonas testosteroni DSM 5416; assay: Growth of the strain in culture medium (OD600); format: cell-based
# Protocol: Strains which appeared uniform according to the colony morphology and the microscopic image were then cultivated in 100 ml liquid medium (500 ml Erlenmeyer flask with top and 4 lateral baffles) at 30° C. on a rotary agitator machine at 200 rpms. The culture medium had the following composition: […]
# (§1) The carbon source of the culture medium with a concentration of 4 g/l was varied and the influence on growth and acylase formation determined.
# (§2) The concentration of N-acetyl-L-proline was varied in a range of 1 g/l-5 g/l in steps of 1 g/l in the culture medium as described in Example 1.
# (§3) The concentration of (NH4)2 SO4 was varied in a range of 1 g/l-5 g/l in steps of 1 g/l in the culture medium as described in Example 1.
# (§4) The concentration of yeast extract was varied in a range of 1 g/l-5 g/l in steps of 1 g/l in the culture medium as described in Example 1.
# (§5) The N-acetyl-L-proline concentration was reduced to 0.2 to 1.0 g/l in the culture medium as described in Example 1 and 4 g/l Na acetate were additionally added.
# (§6) The method described above under f) was followed. However, the inductor, N-acetyl-L-proline, was not added to the nutrient medium until the late exponential growth phase after an incubation time of 12 hours.
# (§7) The method described above under f) was followed. In addition to N-acetyl-L-proline, various N-acetyl- and N-chloroacetyl amino acids were added to the nutrient medium in a concentration of 1 g/l.
# [2] = test system: N-acyl-L-proline acylase formation in Comamonas testosteroni DSM 5416; assay: Acylase formation: specific activity of N-acyl-L-proline acylase in crude extract; format: cell-based
# Protocol: After 24 to 48 hours, the cell-containing nutrient medium was centrifuged (15 min., 4,500 g in a cooling centrifuge), the cells were washed twice with 0.9% (w/v) NaCl solution and resuspended in 10 ml 0.1M tris-HCl buffer, pH 7.0.
# The microorganisms of this suspension were macerated by ultrasound treatment (Sonifier-Cell Disrupter B-30 of the firm Branson Sonic Power Co., Danbury, Conn., USA) (2 minutes pulsating, corresponding to 1 minute of pure ultrasonic radiation. The cell fragments and non-macerated cells were centrifuged in a cooled centrifuge 30 minutes at 40,000 g and 5° C. The clear supernatant (=crude extract) was used in an enzyme test.
# The reaction was started by adding crude extract and the reaction batches customarily incubated for 10 minutes at 30° C. The incubation time and the amount of crude extract were selected so that the linearity range of the enzymatic reaction and of the subsequent proline detection were not exceeded.
# The enzymatic reaction was interrupted by pipetting 50 μl of the enzyme sample into 1.25 ml 100% acetic acid. Subsequently, 0.45 ml 0.1M tris-HCl buffer pH 7.0 and 1.25 ml ninhydrin reagent (3 g ninhydrin dissolved by heating in a mixture of 60 ml 100% acetic acid and 40 ml 6M phosphoric acid) were added. The ninhydrin reagent was freshly prepared daily. The test tubes were loosely closed with screw-on caps, incubated 30 minutes at 100° C. and subsequently cooled down in an ice bath.
# The L-proline, liberated by the enzymatic hydrolysis, forms a red dye with ninhydrin at 100° C. The absorption of the red dye was measured in a spectrophotometer at 480 nm relative to a control batch without crude extract (=substrate blank). The concentration of the L-proline produced was determined using a straight calibration line with L-proline in a range of 5 to 100 nmoles per 50 μl specimen. The enzyme activity was indicated in international units; thus, one unit (U) corresponded to an amount of 1 μmole L-proline produced per minute.
# The protein determination was carried out with a protein-determination kit of the firm Pierce Chemical Co., Rockford, Ill., USA, according to Bradford, Anal. Biochem. 72, pp. 248-254 (1976).
# as §1, §2, §3, §4, §5, §6, §7
# N-acyl-L-proline acylase = assay: Substrate specificity: hydrolysis of N-acyl amino acids and proline derivatives; format: biochemical, Comamonas testosteroni DSM 5416; conditions: for Rel. activity (%): 20 mM substrate 1.0 ml in 2.0 ml batch, amino-acid analyzer
# Protocol: The activity of acylase was determined with various N-acetyl-L-amino acids and N-chloroacetyl-L-amino acids in a reaction batch with the following composition:
# The reaction temperature was 30° C. and the incubation time 15 minutes to 24 hours. 0.2 ml samples of the reaction batch in each instance were mixed at different times with 0.2 ml 10% (w/v) trichloroacetic acid and the denatured protein centrifuged off for 10 minutes at 11,000 rpms in a table centrifuge. The supernatant was diluted with a 0.1M Na citrate buffer pH 2.2 with 25% (v/v) 2.2-thiodiethanol and 0.1% (v/v) phenol 1:5 and 1:50 respectively. The amino acids released were quantitatively detected by an amino-acid analyzer LC 5001 of the firm Biotronic, Maintal, Federal Republic of Germany. In Table 16, the substrates marked with * and the corresponding products were quantified by means of HPLC.
# The activity of the acylase was determined with various proline derivatives as under a).
# [3] = carbon source 4 g/l in culture medium
# [4] = (NH4)2 SO4 1 g/l in culture medium, 23 hours
# [5] = (NH4)2 SO4 2 g/l in culture medium, 23 hours
# [6] = (NH4)2 SO4 3 g/l in culture medium, 23 hours
# [7] = (NH4)2 SO4 4 g/l in culture medium, 23 hours
# [8] = (NH4)2 SO4 5 g/l in culture medium, 23 hours
# [9] = 30° C., pH 7.0, N-acetyl-L-proline = 100%
# [10] = inductor 1 g/l + 4 g/l Na acetate, 24 hours
compound,measurement,setting,value
O=C[C@@H](O)[C@@H](O)[C@H](O)[C@H](O)CO [mannose],Growth (OD600),[1]; [3],No growth
O=C(O)CC(O)C(=O)O (stereo not drawn) [Malate],Growth (OD600),[1]; [3],3.4 OD600
same,Spec. activity (U/mg),[2]; [3],< 0.01 U/mg
O=C(CO)[C@@H](O)[C@H](O)[C@H](O)CO [fructose],Growth (OD600),[1]; [3],No growth
CC(O)C(=O)O (stereo not drawn) [Lactate],Growth (OD600),[1]; [3],3.0 OD600
same,Spec. activity (U/mg),[2]; [3],< 0.01 U/mg
O=C[C@H](O)[C@@H](O)[C@H](O)CO [xylose],Growth (OD600),[1]; [3],No growth
N[C@@H](CO)C(=O)O [Lserin],Growth (OD600),[1]; [3],No growth
N.N.O=S(=O)(O)O [(NH4)2 SO4],Growth (OD600),[1]; [4],5.24 OD600
same,Growth (OD600),[1]; [5],5.67 OD600
same,Growth (OD600),[1]; [6],5.47 OD600
same,Growth (OD600),[1]; [7],5.44 OD600
same,Growth (OD600),[1]; [8],5.47 OD600
same,Optimum concentration in the culture medium for acylase formation,[2],2 g/L
same,Spec. activity (U/mg),[2]; [4],1.71 U/mg
same,Spec. activity (U/mg),[2]; [5],1.91 U/mg
same,Spec. activity (U/mg),[2]; [6],1.53 U/mg
same,Spec. activity (U/mg),[2]; [7],1.59 U/mg
same,Spec. activity (U/mg),[2]; [8],1.32 U/mg
OC[C@H]1O[C@H](O[C@H]2[C@H](O)[C@@H](O)[C@H](O)O[C@@H]2CO)[C@H](O)[C@@H](O)[C@@H]1O [maltose],Growth (OD600),[1]; [3],No growth
CC(=O)C(=O)O [Pyruvate],Growth (OD600),[1]; [3],2.4 OD600
same,Spec. activity (U/mg),[2]; [3],< 0.01 U/mg
CC(C)C[C@H](NC(=O)CCl)C(=O)O [ClAc--L--Leu],Rel. activity (%),N-acyl-L-proline acylase; [9],1.9%
same,Growth (OD600),[1]; [10],2.65 OD600
same,Spec. activity (U/mg),[2]; [10],< 0.01 U/mg
phenylacetate,Growth (OD600),[1]; [3],No growth
O=C[C@H](O)[C@@H](O)[C@H](O)[C@H](O)CO [glucose],Growth (OD600),[1]; [3],No growth
OC[C@H]1O[C@@](CO)(O[C@H]2O[C@H](CO)[C@@H](O)[C@H](O)[C@H]2O)[C@@H](O)[C@@H]1O [saccharose],Growth (OD600),[1]; [3],No growth
N=C(N)NCCC[C@H](N)C(=O)O [Larginine],Growth (OD600),[1]; [3],No growth
CCCC(=O)O [Butyrate],Growth (OD600),[1]; [3],1.8 OD600
same,Spec. activity (U/mg),[2]; [3],< 0.01 U/mg
CC(=O)O [Acetate],Growth (OD600),[1]; [3],2.3 OD600
same,Acylase formation / induction (in words),[2],not repressed
same,Spec. activity (U/mg),[2]; [3],< 0.01 U/mg
CC(C)[C@H](NC(=O)CCl)C(=O)O [N-chloroacetyl-L-valine],Hydrolysis by the acylase (in words),N-acyl-L-proline acylase,hydrolyzes; also recorded: reacted at a distinctly lower speed
same,Rel. activity (%),N-acyl-L-proline acylase; [9],14.1%
same,Growth (OD600),[1]; [10],2.50 OD600
same,Spec. activity (U/mg),[2]; [10],< 0.01 U/mg
N[C@@H](Cc1c[nH]c2ccccc12)C(=O)O [Ltryptophane],Growth (OD600),[1]; [3],No growth
CC(C)C[C@H](N)C(=O)O [L-leucine],Growth (OD600),[1]; [3],2.6 OD600
same,Spec. activity (U/mg),[2]; [3],< 0.01 U/mg
N[C@@H](CC(=O)O)C(=O)O [L-aspartate],Growth (OD600),[1]; [3],2.0 OD600
same,Spec. activity (U/mg),[2]; [3],< 0.01 U/mg
O=C(O)[C@@H]1CCCN1 [L-proline],Growth (OD600),[1]; [3],3.9 OD600
same,Spec. activity (U/mg),[2]; [3],< 0.01 U/mg
O=C(O)CC(O)(CC(=O)O)C(=O)O [citrate],Growth (OD600),[1]; [3],No growth
CSCC[C@H](NC(=O)CCl)C(=O)O [N-chloroacetyl-L-methionine],Hydrolysis by the acylase (in words),N-acyl-L-proline acylase,hydrolyzes; also recorded: reacted at a distinctly lower speed
same,Rel. activity (%),N-acyl-L-proline acylase; [9],17.1%
same,Growth (OD600),[1]; [10],2.19 OD600
same,Spec. activity (U/mg),[2]; [10],< 0.01 U/mg
N[C@@H](Cc1c[nH]cn1)C(=O)O [Lhistidine],Growth (OD600),[1]; [3],No growth
CC(=O)N[C@@H](C)C(=O)O [N-acetyl-L-alanine],Hydrolysis by the acylase (in words),N-acyl-L-proline acylase,hydrolyzes; also recorded: reacted at a distinctly lower speed
same,Rel. activity (%),N-acyl-L-proline acylase; [9],9.3%
same,Growth (OD600),[1]; [10],2.28 OD600
same,Spec. activity (U/mg),[2]; [10],< 0.01 U/mg
O=C(CCl)N[C@@H](Cc1ccccc1)C(=O)O [ClAc--L--Phe],Rel. activity (%),N-acyl-L-proline acylase; [9],1.0%
same,Growth (OD600),[1]; [10],2.89 OD600
same,Spec. activity (U/mg),[2]; [10],< 0.01 U/mg
OC[C@H]1O[C@@H](O[C@H]2[C@H](O)[C@@H](O)C(O)O[C@@H]2CO)[C@H](O)[C@@H](O)[C@H]1O (stereo partly drawn) [lactose],Growth (OD600),[1]; [3],No growth
O=C(CCl)N[C@@H](Cc1ccc(O)cc1)C(=O)O [ClAc--L--Tyr],Rel. activity (%),N-acyl-L-proline acylase; [9],1.0%
same,Growth (OD600),[1]; [10],2.76 OD600
same,Spec. activity (U/mg),[2]; [10],< 0.01 U/mg
O=C(O)[C@H]1CCCN1C(=O)OCc1ccccc1 [Z--D--Pro--OH],Relative Activity (%),"N-acyl-L-proline acylase; proline derivatives, 30° C., pH 7.0, N-acetyl-L-proline = 100%",0%
"CC(=O)NC(CO)C(=O)O (racemic) [Ac--D,L--Ser]",Rel. activity (%),N-acyl-L-proline acylase; [9],0.2%
CC(=O)N[C@@H](Cc1ccc(O)cc1)C(=O)O [Ac--L--Tyr],Rel. activity (%),N-acyl-L-proline acylase; [9],0%
CCC(=O)O [Propionate],Growth (OD600),[1]; [3],1.9 OD600
same,Spec. activity (U/mg),[2]; [3],< 0.01 U/mg
OCC(O)CO [Glycerol],Growth (OD600),[1]; [3],1.1 OD600
same,Spec. activity (U/mg),[2]; [3],< 0.01 U/mg
